Source: US9249125B2, “Pyrazole derivatives as p38 MAP inhibitors” (RESPIVERT LIMITED, priority 2012, dated 2016)

Assays:
p38 MAPKα = p38 MAPKα (Homo sapiens (Human), UniProt Q16539); experiment: Enzyme binding assay (Kinomescan) p38 MAPKα; conditions: read-out: % Inhibition for kinase binding at 500 nM p38 MAPKα
Description: (§1) The kinase enzyme binding activities of compounds disclosed herein were determined using a proprietary assay which measures active site-directed competition binding to an immobilized ligand (Fabian, M. A. et al., Nature Biotechnol., 2005, 23:329-336). These assays were conducted by DiscoverX (formerly Ambit; San Diego, Calif.). The percentage inhibition produced by incubation with a test compound is calculated relative to the non-inhibited control.

p38 MAPKγ = p38 MAPKγ (Homo sapiens (Human), UniProt P53778); experiment: Enzyme binding assay (Kinomescan) p38 MAPKγ; conditions: read-out: % Inhibition for kinase binding at 500 nM p38 MAPKγ
Sequence of p38 MAPKγ (P53778 whole entry): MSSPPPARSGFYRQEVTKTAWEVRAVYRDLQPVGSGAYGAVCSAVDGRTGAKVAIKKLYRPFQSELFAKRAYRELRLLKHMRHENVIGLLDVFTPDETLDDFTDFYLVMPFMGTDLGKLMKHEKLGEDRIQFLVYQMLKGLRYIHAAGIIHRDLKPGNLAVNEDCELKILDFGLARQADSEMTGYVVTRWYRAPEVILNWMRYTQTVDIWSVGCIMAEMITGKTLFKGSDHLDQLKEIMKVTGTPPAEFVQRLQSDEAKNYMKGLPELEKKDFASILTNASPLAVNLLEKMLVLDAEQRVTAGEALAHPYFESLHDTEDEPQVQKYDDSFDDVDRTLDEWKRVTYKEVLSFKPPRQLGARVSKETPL
Description: (§2) These assays were conducted by DiscoverX (formerly Ambit; San Diego, Calif.). The percentage inhibition produced by incubation with a test compound is calculated relative to the non-inhibited control.

cSrc = cSrc (Homo sapiens (Human), UniProt P12931); experiment: Enzyme binding assay (Kinomescan) cSrc; conditions: read-out: % Inhibition for kinase binding at 500 nM cSrc
Sequence of cSrc (P12931 whole entry, looked up): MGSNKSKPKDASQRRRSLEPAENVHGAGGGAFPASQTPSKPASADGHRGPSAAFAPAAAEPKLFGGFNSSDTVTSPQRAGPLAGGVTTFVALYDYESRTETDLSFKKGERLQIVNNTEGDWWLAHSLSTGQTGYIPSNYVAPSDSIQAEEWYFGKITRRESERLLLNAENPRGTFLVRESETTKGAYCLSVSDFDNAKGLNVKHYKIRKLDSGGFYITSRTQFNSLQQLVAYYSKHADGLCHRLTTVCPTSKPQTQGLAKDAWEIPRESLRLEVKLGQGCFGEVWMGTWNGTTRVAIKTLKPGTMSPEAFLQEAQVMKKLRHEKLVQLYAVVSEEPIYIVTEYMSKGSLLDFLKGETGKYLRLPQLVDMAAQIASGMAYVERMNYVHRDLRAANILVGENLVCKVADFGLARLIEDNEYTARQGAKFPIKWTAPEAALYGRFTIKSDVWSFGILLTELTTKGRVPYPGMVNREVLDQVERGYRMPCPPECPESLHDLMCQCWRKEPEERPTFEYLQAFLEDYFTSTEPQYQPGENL
Description: as §2

Syk = Syk (Homo sapiens (Human), UniProt P43405); experiment: Enzyme binding assay (Kinomescan) Syk; conditions: read-out: % Inhibition for kinase binding at 500 nM Syk
Description: as §1

B-Raf = B-Raf (Homo sapiens (Human), UniProt P15056); experiment: Enzyme binding assay (Kinomescan) B-Raf; conditions: read-out: % Inhibition for kinase binding at 500 nM B-Raf
Sequence of B-Raf (P15056 whole entry): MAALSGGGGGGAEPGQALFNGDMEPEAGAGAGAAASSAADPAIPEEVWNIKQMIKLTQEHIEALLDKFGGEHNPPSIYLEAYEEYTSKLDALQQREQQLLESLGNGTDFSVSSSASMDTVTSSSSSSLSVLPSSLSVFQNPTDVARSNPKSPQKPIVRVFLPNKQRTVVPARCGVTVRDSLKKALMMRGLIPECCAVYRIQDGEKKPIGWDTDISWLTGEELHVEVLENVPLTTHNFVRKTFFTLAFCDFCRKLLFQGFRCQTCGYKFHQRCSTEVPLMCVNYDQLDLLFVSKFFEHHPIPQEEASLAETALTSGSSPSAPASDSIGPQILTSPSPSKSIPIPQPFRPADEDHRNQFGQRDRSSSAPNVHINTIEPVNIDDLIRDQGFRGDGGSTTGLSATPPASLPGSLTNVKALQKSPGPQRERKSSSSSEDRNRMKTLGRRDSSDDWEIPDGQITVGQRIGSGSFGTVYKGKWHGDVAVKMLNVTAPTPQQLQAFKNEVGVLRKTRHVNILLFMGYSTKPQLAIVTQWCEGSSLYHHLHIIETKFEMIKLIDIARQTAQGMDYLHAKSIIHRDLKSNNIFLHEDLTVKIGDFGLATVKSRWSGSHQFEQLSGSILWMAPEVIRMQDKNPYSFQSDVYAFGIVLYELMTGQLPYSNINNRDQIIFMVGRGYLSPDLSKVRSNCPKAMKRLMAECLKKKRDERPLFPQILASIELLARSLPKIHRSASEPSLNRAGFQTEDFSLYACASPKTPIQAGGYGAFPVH
Description: as §2

GSK3α = GSK3α (Homo sapiens (Human), UniProt P49840); experiment: Enzyme binding assay (Kinomescan) GSK3α; conditions: read-out: % Inhibition for kinase binding at 500 nM GSK3α
Sequence of GSK3α (P49840 whole entry): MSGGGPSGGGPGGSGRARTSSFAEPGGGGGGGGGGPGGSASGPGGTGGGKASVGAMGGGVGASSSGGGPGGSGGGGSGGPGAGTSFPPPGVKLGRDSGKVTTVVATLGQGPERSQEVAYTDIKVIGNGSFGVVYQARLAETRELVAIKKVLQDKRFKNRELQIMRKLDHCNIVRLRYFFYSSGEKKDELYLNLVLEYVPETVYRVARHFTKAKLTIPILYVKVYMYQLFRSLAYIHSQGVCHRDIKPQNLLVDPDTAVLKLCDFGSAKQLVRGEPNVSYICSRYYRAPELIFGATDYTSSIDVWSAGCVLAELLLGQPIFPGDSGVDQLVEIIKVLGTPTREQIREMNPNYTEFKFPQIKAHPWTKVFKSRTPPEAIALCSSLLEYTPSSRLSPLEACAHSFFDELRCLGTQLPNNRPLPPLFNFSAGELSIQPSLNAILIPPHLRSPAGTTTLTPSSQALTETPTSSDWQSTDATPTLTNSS
Description: as §1

Sequence of p38 MAPKα (Q16539 whole entry): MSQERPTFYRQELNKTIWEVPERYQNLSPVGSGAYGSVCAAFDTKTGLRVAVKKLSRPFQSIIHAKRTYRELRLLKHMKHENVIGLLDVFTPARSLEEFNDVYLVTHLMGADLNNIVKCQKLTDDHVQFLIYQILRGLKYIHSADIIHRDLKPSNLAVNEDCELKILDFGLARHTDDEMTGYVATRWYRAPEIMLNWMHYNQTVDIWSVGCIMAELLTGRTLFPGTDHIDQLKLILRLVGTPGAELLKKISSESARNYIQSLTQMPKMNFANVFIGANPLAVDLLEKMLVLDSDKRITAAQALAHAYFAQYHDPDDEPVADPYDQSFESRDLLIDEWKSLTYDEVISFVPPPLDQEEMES

Question: For `CC(C)(C)c1cc(NC(=O)Nc2ccc(Oc3ccnc(Nc4ccc5[nH]ncc5c4)n3)c3ccccc23)n(-c2ccc(OCCN3CCOCC3)cc2)n1` [Example 12, 1-(4-((2-((1H-Indazol-5-yl)amino)pyrimidin-4-yl)oxy)naphthalen-1-yl)-3-(3-(tert-butyl)-1-(4-(2-morpholinoethoxy)phenyl)-1H-pyrazol-5-yl)urea], which inhibition at 0.5 µM (p38 MAPKα) is on record?
Answer: The inhibition at 0.5 µM was 66%.

Question: And the inhibition at 0.5 µM (p38 MAPKγ)?
Answer: Its inhibition at 0.5 µM is 52%.

Question: What about the inhibition at 0.5 µM (cSrc) of the same molecule?
Answer: The inhibition at 0.5 µM was 100%.

Question: And the inhibition at 0.5 µM (Syk)?
Answer: Its inhibition at 0.5 µM is 100%.

Question: And the inhibition at 0.5 µM (B-Raf)?
Answer: The inhibition at 0.5 µM was 0%.

Question: And the inhibition at 0.5 µM (GSK3α)?
Answer: Its inhibition at 0.5 µM is 31%.
